In ChEMBL document CHEMBL1201862, “PubChem BioAssay data set” (2004):
“And” between values parts separate entries of the source, which are not always exact repeats. Equal values may be shown once.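 Five compound concentrations were applied to cells in 96-well plates for 48 hours; endpoints were derived by simple linear interpolation of the resulting dose-response curve. GI50 = concentration required for 50% inhibition of growth.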 The source made the active and inactive calls. Cut-off read from the data, not from the text of the source: active = GI50 up to about 1.1 µM and inactive = higher.

What was measured:
Assay in all cases: NCI-60 cell line screen, 48 h
OVCAR-3 = test system: OVCAR-3
SN12C = test system: SN12C
NCI/ADR-RES = test system: NCI/ADR-RES
NCI-H226 = test system: NCI-H226
SK-OV-3 = test system: SK-OV-3
MDA-MB-435 = test system: MDA-MB-435
SK-MEL-2 = test system: SK-MEL-2
DU-145 = test system: DU-145
CAKI-1 = test system: CAKI-1
SF-539 = test system: SF-539
K562 = test system: K562
MCF7 = test system: MCF7
HCT-15 = test system: HCT-15
UO-31 = test system: UO-31
OVCAR-4 = test system: OVCAR-4
KM12 = test system: KM12
SR = test system: SR
M14 = test system: M14
EKVX = test system: EKVX
HL-60 = test system: HL-60

Compound | GI50 (OVCAR-3) | GI50 (SN12C) | GI50 (NCI/ADR-RES) | GI50 (NCI-H226) | GI50 (SK-OV-3) | GI50 (MDA-MB-435) | GI50 (SK-MEL-2) | GI50 (DU-145) | GI50 (CAKI-1) | GI50 (SF-539) | GI50 (K562) | GI50 (MCF7) | GI50 (HCT-15) | GI50 (UO-31) | GI50 (OVCAR-4) | GI50 (KM12) | GI50 (SR) | GI50 (M14) | GI50 (EKVX) | GI50 (HL-60)
O=C1CC(=O)NC(NN2C(=O)/C(=C/c3ccc(Cl)cc3)N=C2c2ccccc2)=N1 | 15.9 µM (inactive) | 16.8 µM (inactive) | 14.9 µM (inactive) | 16.9 µM (inactive) | 23 µM (inactive) | 15.2 µM (inactive) | 15.5 µM (inactive) | 30.1 µM (inactive) | 72.6 µM (inactive) | 16.8 µM (inactive) | 9.62 µM (inactive) | 21.2 µM (inactive) | 15 µM | 16.3 µM (inactive) | 5.64 µM (inactive) | 13 µM (inactive) | 4.71 µM (inactive) | 14.5 µM (inactive) | – | –
Nc1ccc(-c2nc3cc(F)ccc3s2)cc1CO | 36.2 µM (inactive) | 32.7 µM (inactive) | 53.6 µM (inactive) | 0.0219 µM (active) | 16.7 µM (inactive) | > 100 µM (inactive) | 23.9 µM (inactive) | > 78.9 µM (inactive) | > 56.5 µM (inactive) | 20.1 µM (inactive) | > 100 µM (inactive) | < 0.01 µM (active) | 41 µM | 18.1 µM (inactive) | > 100 µM (inactive) | > 100 µM (inactive) | – | > 49.5 µM (inactive) | 17.8 µM (inactive) | > 76.9 µM (inactive)
O=C1c2ccccc2C(=O)N1n1c(Cc2ccccc2)n[nH]c1=O | > 100 µM (inactive) | > 100 µM (inactive) | > 100 µM (inactive) | > 100 µM (inactive) | – | > 100 µM (inactive) | > 100 µM (inactive) | > 100 µM (inactive) | > 100 µM (inactive) | > 100 µM (inactive) | > 100 µM (inactive) | > 100 µM (inactive) | > 100 µM | > 100 µM (inactive) | > 100 µM (inactive) | > 100 µM (inactive) | > 100 µM (inactive) | > 100 µM (inactive) | > 100 µM (inactive) | –
Cc1c(S(=O)(=O)N/C(=N\O)Nc2ccc(Cl)c(Cl)c2)sc2ccc(Cl)cc12 | 14.5 µM (inactive) | 18.7 µM (inactive) | 18.7 µM (inactive) | 20.9 µM (inactive) | – | 17.9 µM (inactive) | 18.9 µM (inactive) | 18.8 µM (inactive) | 18.5 µM (inactive) | 23 µM (inactive) | 29.5 µM (inactive) | 24.9 µM (inactive) | 17.1 µM | 20.3 µM (inactive) | 15.1 µM (inactive) | 16.9 µM (inactive) | – | 21.5 µM (inactive) | 12.9 µM (inactive) | 26.7 µM (inactive)
C/C(=N\NC(=S)N1CCC(N2CCCCC2)CC1)c1ccccn1 | 2.4 µM (inactive) | 2.7 µM (inactive) | 2.26 µM (inactive) | – | 4.93 µM (inactive) | 2.4 µM (inactive) | > 100 µM (inactive) | 3.72 µM (inactive) | 2.07 µM (inactive) | 3.11 µM (inactive) | 1.29 µM (inactive) | 2.87 µM (inactive) | 2.4 µM | 1.9 µM (inactive) | 4.73 µM (inactive) | 2.81 µM (inactive) | 0.519 µM (active) | 1.87 µM (inactive) | 3.4 µM (inactive) | 0.796 µM (active)
Cc1cccc(-c2nc(-c3cnccn3)n(Cc3ccccc3)n2)c1 | > 100 µM (inactive) | > 100 µM (inactive) | > 100 µM (inactive) | – | 65.6 µM (inactive) | > 100 µM (inactive) | – | > 100 µM (inactive) | – | > 100 µM (inactive) | > 100 µM (inactive) | > 100 µM (inactive) | > 100 µM | > 100 µM (inactive) | 27.2 µM (inactive) | > 100 µM (inactive) | > 100 µM (inactive) | > 100 µM (inactive) | – | > 100 µM (inactive)
O=[N+]([O-])/C(C(Cl)=C(Cl)Cl)=C(\N1CCCCC1)n1cncn1 | 16 µM (inactive) | 17.5 µM (inactive) | 20.1 µM (inactive) | 18.3 µM (inactive) | 17.6 µM (inactive) | 17.9 µM (inactive) | 18 µM (inactive) | 16.6 µM (inactive) | 10.6 µM (inactive) | 17.1 µM (inactive) | > 46 µM (inactive) | 14.9 µM (inactive) | 16 µM | 15.9 µM (inactive) | 18.6 µM (inactive) | 19.5 µM (inactive) | 3.99 µM (inactive) | 17.2 µM (inactive) | 15.8 µM (inactive) | –
Cc1[nH]c2ncn3[nH]c(=S)nc3c2c1Cc1ccccc1 | > 100 µM (inactive) | > 100 µM (inactive) | > 100 µM (inactive) | > 100 µM (inactive) | > 100 µM (inactive) | > 100 µM (inactive) | > 100 µM (inactive) | > 100 µM (inactive) | > 100 µM (inactive) | > 100 µM (inactive) | – | 52.6 µM (inactive) | > 100 µM | > 100 µM (inactive) | > 100 µM (inactive) | > 100 µM (inactive) | – | > 100 µM (inactive) | > 100 µM (inactive) | > 100 µM (inactive)
CCN(CC)C1CCC(C2c3cc4c(cc3OC(N3CCOCC3)C2C)OCO4)CC1 (stereo not drawn) | 14.7 µM (inactive) | > 29.2 µM (inactive) | 27 µM (inactive) | – | – | 6.81 µM (inactive) | 5.62 µM (inactive) | 18.5 µM (inactive) | > 100 µM (inactive) | 22.3 µM (inactive) | 8.77 µM (inactive) | 22.6 µM (inactive) | 12.1 µM | 36.9 µM (inactive) | > 100 µM (inactive) | 16.8 µM (inactive) | 23.4 µM (inactive) | 13.7 µM (inactive) | 22.8 µM (inactive) | 22.6 µM (inactive)
CC(C)(C)n1nc(C2CC2)cc1NC(=O)Nc1ccc(Cl)cc1 | > 100 µM (inactive) | > 100 µM (inactive) | > 100 µM (inactive) | > 100 µM (inactive) | > 100 µM (inactive) | > 100 µM (inactive) | > 100 µM (inactive) | > 100 µM (inactive) | > 100 µM (inactive) | > 100 µM (inactive) | > 100 µM (inactive) | > 100 µM (inactive) | > 100 µM | > 100 µM (inactive) | > 100 µM (inactive) | > 100 µM (inactive) | – | > 100 µM (inactive) | > 100 µM (inactive) | > 100 µM (inactive)
Brc1ccc(-c2cn3ccncc3n2)cc1 | > 100 µM (inactive) | > 100 µM (inactive) | > 100 µM (inactive) | > 100 µM (inactive) | > 100 µM (inactive) | > 100 µM (inactive) | > 100 µM (inactive) | > 100 µM (inactive) | > 100 µM (inactive) | > 100 µM (inactive) | > 100 µM (inactive) | > 100 µM (inactive) | > 100 µM | > 100 µM (inactive) | > 100 µM (inactive) | > 100 µM (inactive) | > 100 µM (inactive) | > 100 µM (inactive) | 63.8 µM (inactive) | –
O=C1CC(C(OCc2ccccc2)C(OCc2ccccc2)C(COCc2ccccc2)OCc2ccccc2)CC(=O)N1 (stereo not drawn) | – | > 75 µM (inactive) | > 75 µM (inactive) | > 100 µM (inactive) | – | > 75 µM (inactive) | – | > 75 µM (inactive) | – | > 100 µM (inactive) | – | > 100 µM (inactive) and 51.9 µM (inactive) | > 75 µM | – | > 75 µM (inactive) | – | > 75 µM (inactive) | > 75 µM (inactive) | > 100 µM (inactive) | > 100 µM (inactive)
CC(=O)OCC(OC(C)=O)C(OC(C)=O)C(OC(C)=O)C(C=NN(C(C)=O)S(=O)(=O)c1ccc(/C=C2\NC(=O)N(C)C2=O)cc1)OC(C)=O (stereo not drawn) | 29.7 µM (inactive) | 30.6 µM (inactive) | 73.3 µM (inactive) | 22.8 µM (inactive) | 31.4 µM (inactive) | 33.1 µM (inactive) | 20.4 µM (inactive) | 29.5 µM (inactive) | 45.4 µM (inactive) | 26.7 µM (inactive) | 36.3 µM (inactive) | 30.2 µM (inactive) | 21.3 µM | 35.9 µM (inactive) | 27 µM (inactive) | > 100 µM (inactive) | 11.8 µM (inactive) | 42.7 µM (inactive) | 23.2 µM (inactive) | –
c1ccc2c(Nc3ncco3)cccc2c1 | > 10 µM (inactive) | > 10 µM (inactive) | > 10 µM (inactive) | > 10 µM (inactive) | > 10 µM (inactive) | > 10 µM (inactive) | – | > 10 µM (inactive) | > 10 µM (inactive) | > 10 µM (inactive) | > 10 µM (inactive) | > 10 µM (inactive) | > 10 µM | > 10 µM (inactive) | > 10 µM (inactive) | > 10 µM (inactive) | 0.001 µM (active) | > 10 µM (inactive) | > 10 µM (inactive) | –
O=C(Nc1ccn(C2CC(O)C(CO)O2)c(=O)n1)c1ccccc1 (stereo not drawn) | > 100 µM (inactive) | > 100 µM (inactive) | > 100 µM (inactive) | > 100 µM (inactive) | > 100 µM (inactive) | > 100 µM (inactive) | > 100 µM (inactive) | > 100 µM (inactive) | > 100 µM (inactive) | > 100 µM (inactive) | > 100 µM (inactive) | > 100 µM (inactive) | > 100 µM | – | > 100 µM (inactive) | > 100 µM (inactive) | – | > 100 µM (inactive) | > 100 µM (inactive) | > 100 µM (inactive)
CCOC(=O)Nc1ccc(S(=O)(=O)Nc2ccc(Br)cc2)cc1 | 36.3 µM (inactive) | 59.8 µM (inactive) | 34.4 µM (inactive) | – | 25.9 µM (inactive) | 43.5 µM (inactive) | 47.1 µM (inactive) | 65.5 µM (inactive) | 35.8 µM (inactive) | 17.2 µM (inactive) | 17.3 µM (inactive) | 23.3 µM (inactive) | 61.5 µM | 34.8 µM (inactive) | 13.6 µM (inactive) | 37.3 µM (inactive) | 18.2 µM (inactive) | 49.3 µM (inactive) | 29.2 µM (inactive) | 25.6 µM (inactive)
